“Also recorded” adds a separate entry of the source.
Columns and labels:
purified human FH = assay: Factor H (FH) binding to gonococci by flow cytometry; assay type: cell-based; details: F62 ΔlgtD grown with 20 μg/mL CMP-NulO, human FH 20 μg/mL
Protocol: FIG. 1: CMP-KDN serves as a substrate for gonococcal LOS and incorporation of KDN on gonococcal lacto-N-neotetraose LOS enhances factor H (FH) binding. A. Incorporation of KDN by gonococci. Gonococcal strain F62 ΔlgtD (expresses lacto-N-neotetraose (LNnT) from Hepl) was grown in media containing CMP-KDN (20 μg/mL) and binding of mAb 3F11 was measured by flow cytometry. mAb 3F11 binds only to […] LNnT; substitution of the terminal Gal of LNnT, for example with a NulO, will decrease mAb 3F11 binding. Approximately 5×10^7 bacteria were incubated with mAb 3F11 tissue culture supernatants for 15 minutes at 37° C. Binding of mAb 3F11 was disclosed with anti-mouse IgM FITC (Sigma; dilution of 1:100). Bacteria grown in CMP-Neu5Ac or in media alone were used as positive and negative controls for sialylation, respectively. A representative histogram is shown in the upper panel. […] B. Factor H (FH) binding to gonococci grown in CMP-KDN. Approximately 5×10^7 bacteria grown in media alone (no sialic acid), media plus CMP-Neu5Ac (20 μg/mL; positive control for FH binding) or in media containing CMP-KDN (20 μg/mL) were incubated with purified human FH (20 μg/mL) in HBSS** for 15 minutes at 37° C. and bound FH was detected with affinity isolated goat anti-human FH followed by anti-goat IgG FITC (Sigma; 1:100 dilution). A representative histogram is shown in the upper panel. […]

N. gonorrhoeae H041 = assay: BALB/c mouse vaginal colonization model; assay type: in vivo; details: 10 μg intravaginally daily; Premarin treated BALB/c mice
Protocol: FIG. 2: Female BALB/c mice 5-6 weeks of age (Jackson Laboratories) in the diestrus phase of the estrous cycle were started on treatment (that day) with 0.5 mg of Premarin (Pfizer) given subcutaneously on each of three days; −2, 0 and +2 days (before, the day of and after inoculation) to prolong the estrus phase of the cycle and promote susceptibility to N. gonorrhoeae infection. Antibiotics (vancomycin, colistin, neomycin, trimethoprim and streptomycin) that were ineffective against N. gonorrhoeae were also used to reduce competitive microflora. Mice (n=40) were then infected with 10^6 CFU of strain H041. Three groups of mice (n=10/group) were treated with 10 μg intravaginally daily (first dose was administered 30 minutes before the introduction of bacteria) with one of the following CMP-NulOs in normal saline: CMP-Leg5Ac7Ac, CMP-Neu5Ac9Az or CMP-KDN. A fourth group (n=10) was given saline (vehicle control). Vaginal swabs were obtained daily from each animal, serially diluted and plated on chocolate agar containing vancomycin, colistin, neomycin, trimethoprim and streptomycin (VCNTS) to quantify bacterial loads. A. Median time to clearance was estimated using Kaplan-Meier survival curves; the times to clearance were compared between groups using a log-rank test. P<0.0001 for the control versus each of the treatment groups. Time to clearance between each of the treatment groups was similar (P>0.05). B. The mean area under the curve (log10 CFU vs. time) was computed for each mouse to estimate the bacterial burden over time (cumulative infection); the means under the curves were compared between groups using the Kruskal-Wallis nonparametric rank sum test because distributions were skewed or kurtotic. Groups were compared using Dunn's multiple comparison test. ****, P<0.0001; **, P<0.01; *, P<0.05. The differences among the groups that received CMP-NulOs were not significant.
The mouse model experiments and statistical analysis were conducted as described in the art and in U.S. Pat. No. 9,765,106. […]

Nc1ccn([C@@H]2O[C@H](COP(=O)(O)O[C@@]3(C(=O)O)CC(O)[C@@H](O)C([C@H](O)[C@H](O)CO)O3)C(O)C2O)c(=O)n1 (stereo partly drawn) [CMP-KDN, cytidine 5′-monophospho-3-deoxy-D-glycero-D-galacto-nonulosonic acid]
fH binding to bacteria (purified human FH): half of that observed for Neu5Ac | attenuation of N. gonorrhoeae H041 infection (N. gonorrhoeae H041): some efficacy; also recorded: significantly attenuated; also recorded: just as efficacious in an animal model of colonization
